Test system: platelets in whole blood
Experiment: Blood coagulability measurement of whole blood by dielectric constant (dielectric coagulometer, DiCA-Ex / DiCA-In)
Assay type: cell-based, human (healthy subject)
Method: Measurement of blood coagulability was conducted using the blood put to reaction in the experiment of 3-2 above. The measurement was carried out using a blood coagulation system analyzing device (dielectric coagulometer prototype No. 2), for performing the measurement of dielectric constant of the sample as aforementioned, and a comprehensive hemostatic ability measuring system ROTEM (registered trademark), at a measurement temperature of 37° C.
In the case of the blood coagulation system analyzing device, measurement of DiCA-Ex to which an aqueous calcium solution (0.2 M Ca) and a commercialized extrinsic stimulus reagent (100 fold dilution+PBS (v/v=1/5)) were added immediately before the start of measurement, and measurement of DiCA-In to which an aqueous calcium solution (0.2 M Ca) and a commercialized intrinsic stimulus reagent (+PBS(v/v=1/5)) were added, were conducted. The amount was unifiedly set to be 12 uL per 180 uL of blood.
The time of 10 minutes determinative of coagulation time was taken as an investigation time (FIG. 12-1), the maximum value was taken as 1, and the reciprocal of the difference therefrom was calculated (calculated CF), the results being depicted in FIG. 12-2. An average value obtained in the case where NaCl was added (control) was 17.7, whereas an average value obtained in the case where the platelet inducing substance was added was 12.7 (n=4).

thrombin receptive activated protein [TRAP]
amplitude of time variation in dielectric constant (normalized) at 100 kHz (whole blood, versus +NaCl control): the amplitude is raised

CCCCC[C@H](O)/C=C/[C@H]1[C@H](O)CC(=O)[C@@H]1CCCCCCC(=O)O [prostaglandin E1]
difference between control and platelet inducing substance (platelet contribution part) (combination with ADP): this difference is reduced

— patent publication US20190049428A1, “PLATELET AGGREGABILITY ANALYZING DEVICE, PLATELET AGGREGABILITY ANALYZING SYSTEM, PLATELET AGGREGABILITY ANALYZING PROGRAM, AND METHOD OF ANALYZING PLATELET AGGREGABILITY” (Sony Corporation, priority 2016, published 2019)
